Measurements reported in the supplement of paper PMC12533247.

How the values were obtained:
[1] = system: HSV-1 K26-GFP infected 3D skin equivalent; assay: % activity on HSV-1 GFP signal (0 = infected DMSO control, -100 = uninfected control); higher = higher signal (negative = inhibition / toxicity); details: time (h post infection): 48
Experimental: (§1)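 Triplicate dose-response (0.04 to 10 uM) of 11 top compounds in 3D bioprinted skin equivalents (submerged and ALI models) infected with GFP-HSV-1 K26 at MOI 0.1 and fixed at 48 hpi. GFP (virus) and tdTomato (fibroblast viability) signals are normalised to per-plate controls.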

[2] = system: HSV-1 K26-GFP infected primary human skin cells; assay: % change of HSV-1 GFP signal vs untreated infected cells; higher = less antiviral inhibition
Experimental: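 2D primary donor-derived keratinocytes (read at 20 hpi) and donor-matched dermal fibroblasts (read at 48 hpi) infected with GFP-HSV-1 K26 at MOI 1 and treated 1 h later with compound dilutions. IncuCyte GFP integrated intensity is normalised by subtracting mock-infected wells and dividing by untreated infected wells, shown as % change (-100 = full inhibition).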

[3] = system: HSV-1 K26-GFP infected 3D skin equivalent; assay: % change of tdTomato fibroblast signal relative to infected DMSO control; higher = higher signal (negative = inhibition / toxicity); details: time (h post infection): 48
Experimental: as §1

[4] = system: HSV-1 K26-GFP infected primary human skin cells; assay: % change of HSV-1 GFP signal vs untreated infected cells; higher = less antiviral inhibition; details: cell type: primary dermal fibroblasts, time (h post infection): 48
Experimental: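 2D primary donor-derived dermal fibroblasts infected with GFP-HSV-1 K26 at MOI 1, treated 1 h later with compound dilutions and read at 48 hpi on IncuCyte. GFP integrated intensity is normalised to mock-infected and untreated infected wells (% change; -100 = full inhibition).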

Cc1cccc(C)c1N(CC(=O)Nc1ccc(-c2ncon2)cc1)C(=O)C1CCS(=O)(=O)CC1 [Amenamevir]
Details	% activity on HSV-1 GFP signal [%]	% change of HSV-1 GFP signal [%]	% change of tdTomato fibroblast signal [%]
[1], 0.041152 µM, model: ALI	-20.3	–	–
[1], 0.041152 µM, model: submerged	2.22	–	–
[1], 0.123457 µM, model: ALI	-40.4	–	–
[1], 0.123457 µM, model: submerged	-17.6	–	–
[1], 0.37037 µM, model: ALI	-99.3	–	–
[1], 0.37037 µM, model: submerged	-61.9	–	–
[1], 1.111111 µM, model: ALI	-108	–	–
[1], 1.111111 µM, model: submerged	-84.6	–	–
[1], 3.33333 µM, model: ALI	-107	–	–
[1], 3.33333 µM, model: submerged	-89.2	–	–
[1], 10 µM, model: ALI	-112	–	–
[1], 10 µM, model: submerged	-85.3	–	–
[3], 0.041152 µM, model: ALI	–	–	0.354
[3], 0.041152 µM, model: submerged	–	–	12
[3], 0.123457 µM, model: ALI	–	–	-2.14
[3], 0.123457 µM, model: submerged	–	–	-5.09
[3], 0.37037 µM, model: ALI	–	–	-5.49
[3], 0.37037 µM, model: submerged	–	–	-8.61
[3], 1.111111 µM, model: ALI	–	–	-6.26
[3], 1.111111 µM, model: submerged	–	–	-5
[3], 3.33333 µM, model: ALI	–	–	-5.93
[3], 3.33333 µM, model: submerged	–	–	2.99
[3], 10 µM, model: ALI	–	–	-8.92
[3], 10 µM, model: submerged	–	–	5.91
[4], 0.001 µM, donor: 3	–	-1.82	–
[4], 0.001 µM, donor: 4	–	-1.13	–
[4], 0.003 µM, donor: 3	–	-1.99	–
[4], 0.003 µM, donor: 4	–	-8.69	–
[4], 0.0091 µM, donor: 3	–	-11	–
[4], 0.0091 µM, donor: 4	–	-24.4	–
[4], 0.0274 µM, donor: 3	–	-15.9	–
[4], 0.0274 µM, donor: 4	–	-37.9	–
[4], 0.0823 µM, donor: 3	–	-29.7	–
[4], 0.0823 µM, donor: 4	–	-61.9	–
[4], 0.2469 µM, donor: 3	–	-63.1	–
[4], 0.2469 µM, donor: 4	–	-76.9	–
[4], 0.7407 µM, donor: 3	–	-89.6	–
[4], 0.7407 µM, donor: 4	–	-84.4	–
[4], 2.2222 µM, donor: 3	–	-98.8	–
[4], 2.2222 µM, donor: 4	–	-94.5	–
[4], 6.6667 µM, donor: 3	–	-99.52	–
[4], 6.6667 µM, donor: 4	–	-99	–
[4], 20 µM, donor: 3	–	-99.36	–
[4], 20 µM, donor: 4	–	-99.59	–

% change of HSV-1 GFP signal [%], [2]
Details	0.001 µM	0.003 µM	0.0091 µM	0.0274 µM	0.0823 µM	0.2469 µM	0.7407 µM	2.2222 µM	6.6667 µM	20 µM
cell type: primary dermal fibroblasts, donor: 5, time (h post infection): 48	-4.89	-8.89	-13.3	-23.6	-42.3	-59.7	-74.9	-91.3	-98.98	-99.775
cell type: primary keratinocytes, donor: 3, time (h post infection): 20	13.9	12.5	4.38	0.743	-11.4	-38.9	-51.9	-68	-78.6	-83.4
cell type: primary keratinocytes, donor: 4, time (h post infection): 20	-3.16	-0.75	-11.8	-15.3	-42.6	-80.2	-87.1	-93.7	-95.2	-99.17
cell type: primary keratinocytes, donor: 5, time (h post infection): 20	1.08	2.94	-1.03	-12.8	-31.3	-49.2	-67.5	-93.4	-97.9	-99.54

COc1ccc(-c2nc(N3CCOCC3)c3sc(CN(C)c4ncc(C(=O)NO)cn4)cc3n2)cn1 [Fimepinostat]
Details	% activity on HSV-1 GFP signal [%]	% change of HSV-1 GFP signal [%]	% change of tdTomato fibroblast signal [%]
[1], 0.041152 µM, model: ALI	-85.1	–	–
[1], 0.041152 µM, model: submerged	2.37	–	–
[1], 0.123457 µM, model: ALI	-97.4	–	–
[1], 0.123457 µM, model: submerged	6.63	–	–
[1], 0.37037 µM, model: ALI	-79.6	–	–
[1], 0.37037 µM, model: submerged	-1.58	–	–
[1], 1.111111 µM, model: ALI	-64.2	–	–
[1], 1.111111 µM, model: submerged	-31.5	–	–
[1], 3.33333 µM, model: ALI	-78.3	–	–
[1], 3.33333 µM, model: submerged	-75.6	–	–
[1], 10 µM, model: ALI	-88.6	–	–
[1], 10 µM, model: submerged	-87.4	–	–
[3], 0.041152 µM, model: ALI	–	–	-7.82
[3], 0.041152 µM, model: submerged	–	–	12.3
[3], 0.123457 µM, model: ALI	–	–	-14
[3], 0.123457 µM, model: submerged	–	–	9.59
[3], 0.37037 µM, model: ALI	–	–	-3.36
[3], 0.37037 µM, model: submerged	–	–	12.7
[3], 1.111111 µM, model: ALI	–	–	-5.66
[3], 1.111111 µM, model: submerged	–	–	8.55
[3], 3.33333 µM, model: ALI	–	–	-20.2
[3], 3.33333 µM, model: submerged	–	–	-1.39
[3], 10 µM, model: ALI	–	–	-11
[3], 10 µM, model: submerged	–	–	-3.36
[4], 0.003 µM, donor: 3	–	27.2	–
[4], 0.003 µM, donor: 4	–	-1.5	–
[4], 0.0091 µM, donor: 3	–	32.4	–
[4], 0.0091 µM, donor: 4	–	-0.607	–
[4], 0.0274 µM, donor: 3	–	30.4	–
[4], 0.0274 µM, donor: 4	–	-1.06	–
[4], 0.0823 µM, donor: 3	–	27.5	–
[4], 0.0823 µM, donor: 4	–	3.49	–
[4], 0.2469 µM, donor: 3	–	29.4	–
[4], 0.2469 µM, donor: 4	–	-2.47	–
[4], 0.7407 µM, donor: 3	–	21.4	–
[4], 0.7407 µM, donor: 4	–	-9.92	–
[4], 2.2222 µM, donor: 3	–	14.6	–
[4], 2.2222 µM, donor: 4	–	-5.85	–
[4], 6.6667 µM, donor: 3	–	11.3	–
[4], 6.6667 µM, donor: 4	–	-11.4	–
[4], 20 µM, donor: 3	–	8.87	–
[4], 20 µM, donor: 4	–	-9.02	–
[4], 60 µM, donor: 3	–	7.95	–
[4], 60 µM, donor: 4	–	-4.24	–

% change of HSV-1 GFP signal [%], [2]
Details	0.003 µM	0.0091 µM	0.0274 µM	0.0823 µM	0.2469 µM	0.7407 µM	2.2222 µM	6.6667 µM	20 µM	60 µM
cell type: primary dermal fibroblasts, donor: 5, time (h post infection): 48	-12.8	-13.7	-14.2	-12.3	-12	-18.4	-25.6	-32.6	-34.1	-28.4
cell type: primary keratinocytes, donor: 3, time (h post infection): 20	6.27	-3.11	2.91	1.02	-16.3	-33.2	-41.3	-43	-64.7	-48.6
cell type: primary keratinocytes, donor: 4, time (h post infection): 20	-14.2	-25.2	-17.4	-25	-33	-64.8	-69.2	-76.4	-89.2	-72.7
cell type: primary keratinocytes, donor: 5, time (h post infection): 20	-6.73	-26.4	-15.1	-24.8	-44.7	-48	-58.2	-64.6	-70.5	-57.8
